According to BindingDB's records for doi:10.3109/10799899109064686 (Center For Bio-Pharmaceutical Sciences, 1991):

Experiments:
[1] = biological target: Substance-P receptor (Rattus norvegicus) (UniProt P14600)
[2] = biological target: Sodium-dependent serotonin transporter (Rattus norvegicus, UniProt P31652)
[3] = biological target: T1, Muscarinic acetylcholine receptor M2 (Rattus norvegicus, UniProt P10980)
T1 sequence (P10980 whole entry): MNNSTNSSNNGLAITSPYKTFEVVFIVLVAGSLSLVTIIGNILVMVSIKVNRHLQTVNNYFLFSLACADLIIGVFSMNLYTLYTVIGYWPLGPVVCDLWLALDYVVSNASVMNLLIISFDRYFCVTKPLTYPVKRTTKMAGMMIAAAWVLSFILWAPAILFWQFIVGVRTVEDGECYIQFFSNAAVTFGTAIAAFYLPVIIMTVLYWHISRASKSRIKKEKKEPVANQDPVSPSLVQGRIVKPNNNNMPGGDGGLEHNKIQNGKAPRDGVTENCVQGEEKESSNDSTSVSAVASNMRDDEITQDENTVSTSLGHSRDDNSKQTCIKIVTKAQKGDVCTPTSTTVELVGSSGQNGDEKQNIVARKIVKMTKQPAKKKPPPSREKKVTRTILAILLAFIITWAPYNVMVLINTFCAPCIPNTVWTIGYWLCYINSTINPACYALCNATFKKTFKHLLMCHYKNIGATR

Sequence of Substance-P receptor (Rattus norvegicus) (P14600 whole entry, looked up): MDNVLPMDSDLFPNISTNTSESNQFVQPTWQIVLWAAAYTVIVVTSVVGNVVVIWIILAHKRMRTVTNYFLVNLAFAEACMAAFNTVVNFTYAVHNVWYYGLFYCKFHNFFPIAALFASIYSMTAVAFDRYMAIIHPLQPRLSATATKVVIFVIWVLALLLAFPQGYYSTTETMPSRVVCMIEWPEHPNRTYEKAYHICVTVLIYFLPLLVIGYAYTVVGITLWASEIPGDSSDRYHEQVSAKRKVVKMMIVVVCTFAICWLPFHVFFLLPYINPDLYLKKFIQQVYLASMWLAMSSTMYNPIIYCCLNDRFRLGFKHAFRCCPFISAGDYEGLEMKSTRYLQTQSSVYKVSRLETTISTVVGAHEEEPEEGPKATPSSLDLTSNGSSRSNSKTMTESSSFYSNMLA
Sequence of Sodium-dependent serotonin transporter (P31652 whole entry): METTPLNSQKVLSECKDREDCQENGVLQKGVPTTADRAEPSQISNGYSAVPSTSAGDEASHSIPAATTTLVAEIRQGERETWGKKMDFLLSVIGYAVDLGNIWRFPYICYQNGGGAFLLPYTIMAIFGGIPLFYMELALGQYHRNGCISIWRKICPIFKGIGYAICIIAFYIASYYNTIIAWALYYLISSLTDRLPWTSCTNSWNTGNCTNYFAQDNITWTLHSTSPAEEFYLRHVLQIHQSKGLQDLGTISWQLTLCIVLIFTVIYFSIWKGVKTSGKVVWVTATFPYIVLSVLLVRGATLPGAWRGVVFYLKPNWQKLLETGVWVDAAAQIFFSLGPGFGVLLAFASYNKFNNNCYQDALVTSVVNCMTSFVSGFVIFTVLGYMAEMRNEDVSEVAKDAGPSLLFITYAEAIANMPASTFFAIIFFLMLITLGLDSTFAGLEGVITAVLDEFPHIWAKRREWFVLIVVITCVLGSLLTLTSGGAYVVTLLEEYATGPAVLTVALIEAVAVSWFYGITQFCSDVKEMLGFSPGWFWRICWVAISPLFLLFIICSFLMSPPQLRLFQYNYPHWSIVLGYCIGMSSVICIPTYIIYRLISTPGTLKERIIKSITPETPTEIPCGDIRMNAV

Structure (SMILES)	Ki [1]	Ki [2]	Ki [3]
N=C(N)NC(=O)c1nc(Cl)c(N2CCCCCC2)nc1N	> 10 µM	7.9 µM	2.9 µM
N=C(N)NC(=O)c1nc(Cl)c(N)nc1N [3,5-diamino-N-carbamimidoyl-6-chloropyrazine-2-carboxamide]	> 10 µM	–	> 10 µM
NC(=NCc1ccccc1)NC(=O)c1nc(Cl)c(N)nc1N [NSC_108107]	> 10 µM	1.9 µM	5.8 µM
